Laboratory results: EP2563337B1, “CARRIER AND TARGETING SYSTEM COMPRISING A SIOSOMAL COMPOSITION FOR INTRACELLULAR DELIVERY AND TARGETING OF ACTIVE SUBSTANCE” (Salama, Zoser B., priority 2010, dated 2011)
Like-named read-outs stand apart in the source and are kept apart here.

Legend:
[1] = Encapsulation efficiency of nucleic acid in cationic silane siosomes; type: physicochemical; conditions: Example 21 (i): nucleic acid-siosomes complex of the cationic silane
Source text: The cationic silanes-lipid mixture and/or the empty cationic siosomes (the same or different siosomes prepared from the same or different silanes) loaded with buffer and/or cations (2^+) such as Ca^2+, Zn^2+, Mg^2+ at selected pH-values, is hydrated in an appropriate medium containing the nucleic acid.
The mixture will be vortexed and/or sonicated for a period of time at suitable temperature.
Procedures for characterisation, particle stirring, stability, release, lyophilisation, sterilisation, rehydration, storage, and administration were employed according to this invention.

[2] = Encapsulation efficiency of doxorubicin hydrochloride in siosomes (absorbance at 480 nm after gel filtration); type: physicochemical
Description: A doxorubicin hydrochloride solution at 10 mg/ml was prepared using physiological saline. The predetermined amount of the doxorubicin hydrochloride solution was added to the sugar siosome dispersion using the cationic organosilicon compounds such as 1.2-(Dimethyldecylsilyl)ethyl-beta-D-glucosamin, 2.2-(Dimethyloctylsilylcholin)ethyl-beta-D-glucopyranosid and/or 1.2-(DiN,N,N,trimethylammoniadecylsilyl)ethyl-beta-D-glucopyranosid and the mixture was adjusted to pH 7.4, using 1 N NaOH or saturated sodium hydrogencarbonate and the mixture was stirred at 65°C for 30 minutes the thereby introduce the doxorubicin hydrochloride in the siosomes.
After doxorubicin hydrochloride introduction, the sample was cooled in an ice bath. Gel filtration was conducted using a column (Sepharose 4, fast flow, having a diameter of 2.8 cm and a length of 20 cm, fully substituted with 10% sucrose (pH 6.5)) to remove the doxorubicin hydrochloride that had not been introduced in the siosomes.
The amount of the sugar silanes in the siosomes, the amounts of the doxorubicin hydrochloride encapsulated in the siosomes and the siosomes themselves were measured by the same methods as in the above examples.
Concentration of the doxorubicin hydrochloride encapsulated in the siosomes was determined by measuring absorbance at 480 nm, using a spectrophotometer for the solution prepared by adding 2 ml of methanol to 40 µl of the doxorubicin siosomes. An alternative HPLC-based assay has also been used for the quantification of the doxorubicin in the formulations.
The above procedures described in example 16 were employed to prepare the carrier siosomes systems in this example. According to these methods of preparation, a dispersion of each of the following organo-silicon compounds were prepared, using doxorubicin hydrochloride solutions at […]. • Sil 8.1: Decyldimethylsilyl-α-D-galactopyranosid • Sil 9.1: Dodecyldimethylsilyl-α-D-glucopyranosid • SIL 15: 1-O-Dioctadecylsilyl-di(2,3,4,6-O-tetracetyl-β-D-galactopyranosid) • SIL 14: 1-o-Dioctadecylsilyl-di(2,3,4,6-O-tetracetyl-β-D-glucopyranosid)1-o- • SIL17: Didodecylsilyl-di(2,3,4,6-O-tetracetyl-β-D-glucopyranosid) • SIL18: Tridodecylsilyl-(2,3,4,6-O-tetracetyl-β-D-glucopyranosid) • Sil22.1 Di(octadecanoyloxy)dimethylsilan
The following parameters have been determined: 1 Physico chemical properties 2 Encapsulated efficiency of doxorubicin 3 Stability 4 Particle size distribution prior to lyophilisation and after dehydration using sterile water for injection 5 Release profile

[3] = for Particle size range (nm): Example 16, Table 5: doxorubicin-sugar-siosomes of the cationic organosilicon compound; for Particle size range of the Doxorubicin-siosomes (nm): Example 18: doxorubicin-siosomes prepared from the single organosilicon compound; for Particle size of the siosomes (nm): Example 21 (i): nucleic acid-siosomes complex of the cationic silane
Description: The siosome size was measured using Zetasizer (Malvern Instruments).
The obtained test samples were analyzed using a Zetasizer from Malvern to measure the particle size of the Siosomes® and its concentration (via determination of the count rate which related to the sample quality and concentration).
The Zetasizer from Malvern performs particle size measurements using a process called Dynamic Light Scattering (DLS). Dynamic Light Scattering (also known as PCS - Photon Correlation Spectroscopy) measures Brownian motion and relates this to the size of the particles. It does this by illuminating the particles with a laser and analyzing the intensity fluctuations in the scattered light. If the particles or molecules are illuminated with a laser, the intensity of the scattered light fluctuates at a rate that is dependent upon the size of the particles as smaller particles are "kicked" further by the solvent molecules and move more rapidly.

[4] = Intracellular distribution of Cis-Oxoplatin within the rat liver, total platinum in liver homogenate and fractions; type: in vivo; conditions: for Average concentration of total platinum in the liver homogenate: 1.5 mg Cis-Oxoplatin encapsulated in Siosomes of the compound, intravenous, 3 hours after administration
Source text: • 1. The objective of the study to assess the intracellular distribution of Cis-Oxoplatin (as model drug molecule) in rat liver using Cis-Oxoplatin encapsulated in Siosomes®, using the following organosilicon compounds: • a. Sugar Organosilicon Compound: Didodecylsilyi-di(2,3,4,6-O-tetraacetyl-β-D-glucopyranosid (SIL 17) • b. Cationic Sugar Organosilicon Compound: 2.2-(Dimethyloctylsilylcholin)ethyl- β-D-glucopyranosid (SIL62) • c. Anionic Sugar Organosilicon Compound: 2-(Dimethyidecylsilyl)ethyl-β-D-glucopyranosidsulfate (SIL56) • d. Zwitterionic Sugar Organosilicon Compound: 2-(N,N,N, trimethylammonianonaylsilyl)ethyl- P-D-glucopyranosidsulfate (SIL66) • e. PEGylated Organosilicon Compound: 2-(Dimethyloctylsilylcholin)ethyl-β-D-PEG-acetylglucosaminether (SIL54) • 2. The different Siosomes® using each of the above mentioned organosilicon compounds have been prepared according to the procedures of this invention. The particle size range of the Siosomes® was 120-300 nm.
The Platinum-Siosomes®-Complex formulations were supplied in vials containing 10 mg each. Before administration, the contents of each vial was dissolved using 2 ml of sterile distilled water.
Each rat was administered with 1.5 mg investigative formulation, therefore each rat was administered 300 µl.
At the start of the study, all animals in all treatment groups received 1.5 mg of investigative drug. All drugs given via intravenous route were treated in an ultrasonic bath for five minutes at room temperature.
Tissue fractionation was performed by differential centrifugation yielding 5 fractions: • a. Mitochondrial fraction • b. Cytosol • c. Lysosomes • d. Microsomal fraction • e. Membrane fraction
Animals have been sacrificed 3 hours after the administration of the Siosomes® formulations. The livers have been removed from all animals. The liver homogenate has been prepared from the liver of each treatment group and used for the fractionation of the liver cells.
Each of the animals in the treatment control group for the determination of total platinum in the liver homogenate have been administered the Drug-Siosomes® formulations in the same way/procedures as the treatment groups.
Total platinum concentrations have been determined in each fraction for the treated and untreated animal groups. • Average animal weight = 211.64 ± 21.23 g • Average liver weight = 10.40 ± 1.27 g • Average concentration of total platinum in the liver homogenate of the treatment groups (control) • Group 1: Sugar Organosilicon Compound = 2.34 ± 0.82 µg/g • Group 2: Cationic Sugar Organosilicon Compound = 4.40 ± 1.30 µg/g • Group 3: Anionic Sugar Organosilicon Compound = 2.20 ± 0.90 µg/g • Group 4: Zwitterionic Sugar Organosilicon Compound = 3.10 ± 0.70 µg/g • Group 5: PEGylated Organosilicon Compound = 2.90 ± 1.20 µg/g

[5] = type: physicochemical; conditions: unloaded Siosomes
Description: The following are the general procedures according to this invention for the preparation of the Siosomes® using ethanol injection method: • An ethanol solution of the Sugar Silane was injected rapidly into an excess of de-ionized water through a syringe equipped with a fine needle. The force of injection is in many cases sufficient to achieve a good Siosomes® suspension. In some cases the Siosomes® suspension was sonicated during the injection and afterwards for additional 15-45 minutes. The ratio of injected ethanol to water is maintained in a way that the resulting suspension contains not more than 4-7.5% ethanol. The Siosomes® suspension was prepared with a Sugar Silane concentration of 0.5-2.5 mg/ml depending on the used Silane. With this concentration, the final Siosomes® suspension is ready for use for many applications and for the preparation of the lyophilised Siosomes® powder.
The unloaded Siosomes® prepared according to the procedures of this invention using ethanolic solution injection has been investigated for stability.
The following parameters have been considered: • The optimal particle size of the Siosomes® for the further application of the Siosomes® for the encapsulation of active, for screening and for the performance of in-vitro and in-vivo animal studies • The optimal manufacturing conditions to achieve the best particle size distribution for the required particle size (approximately 90 %) • The performance of the Stability testing for the unloaded Siosomes® using the particle size measurements and their distribution • The performance of the Stability testing of the prepared unloaded Siosomes® at 4°C, 25°C and 37°C and 42°C • Stability testing of the prepared encapsulated Siosomes® at: Acidic conditions, alkaline conditions, oxidative conditions and light
All measurements are performed with a Malvern Zetaziser. The Zetasizer was programmed to perform 3 x 15 measurements for each sample. For each temperature and reading point (for each temperature test series 12 sample measurements were performed) two samples has been tested.
The count rate is measured in Kcps (Kilo counts per second), and enables the samples quality and concentration to be checked.

[6] = Example 16, Table 5: doxorubicin hydrochloride in sugar siosomes of the cationic organosilicon compound
[7] = Example 18: doxorubicin-siosomes prepared from the single organosilicon compound

1. 2-(Dimethyldecylsilyl) ethyl-beta-D-glucosamin [SIL 61]
Encapsulation efficiency (%) [1]: 80-85%
Encapsulation efficiency (%) [2, 6]: 75-82%
Encapsulation efficiency (%) [2, 7]: 80-85%
Particle size range (nm) [3]: 120-240 nm
Particle size range of the Doxorubicin-siosomes (nm) [3]: 200-220 nm
Particle size of the siosomes (nm) [3]: 80-120 nm

2-(N,N,N,Dimethylammonia-methyl-decylsilyl)ethyl-beta-D-glucopyranosid [SIL 65]
Encapsulation efficiency (%) [1]: 80-85%
Encapsulation efficiency (%) [2, 7]: 60-70%
Particle size range of the Doxorubicin-siosomes (nm) [3]: 200-250 nm
Particle size of the siosomes (nm) [3]: 160-240 nm

CCCCCCCCCC[Si](C)(C)CCO[C@@H]1O[C@H](COS(=O)(=O)O)[C@@H](O)[C@H](O)[C@H]1O [SIL 56, 2-(Dimethyldecylsilyl)ethyl-beta-D-glucopyranosidsulfate]
Average concentration of total platinum in the liver homogenate ([4]; rats): 2.20 ± 0.90 µg/g
Encapsulation efficiency (%) [2, 7]: 60-70%
Particle size range of the Doxorubicin-siosomes (nm) [3]: 200-220 nm

2. 2-(Dimethyloctylsilylcholin) ethyl-beta-D-glucopyranosid [SIL 62]
intracellular distribution of the encapsulated drug in all fractions ([4]; rat liver fractions (mitochondrial, cytosol, lysosomes, microsomal, membrane), intravenous application, compared with other Siosomes): significantly higher
Average concentration of total platinum in the liver homogenate ([4]; rats): 4.40 ± 1.30 µg/g
concentration of total platinum in the liver homogenate compared with the other treatment groups ([4]; rats, i.v administration of Cis-Oxoplatin Siosomes, 3 hours): significantly higher
Encapsulation efficiency (%) [1]: 75-80%
Encapsulation efficiency (%) [2, 6]: 70-80%
Encapsulation efficiency (%) [2, 7]: 70-75%
Particle size range (nm) [3]: 150-220 nm
Particle size range of the Doxorubicin-siosomes (nm) [3]: 220-250 nm
Particle size of the siosomes (nm) [3]: 110-180 nm

CCCCCCCCCCCC[Si](CCCCCCCCCCCC)(O[C@@H]1O[C@H](COC(C)=O)[C@@H](OC(C)=O)[C@H](OC(C)=O)[C@H]1OC(C)=O)O[C@@H]1O[C@H](COC(C)=O)[C@@H](OC(C)=O)[C@H](OC(C)=O)[C@H]1OC(C)=O [SIL 17, Didoceclylsilyl-di(2,3,4,6-O-tetraacetyl-β-D-glucopyranosid)]
Average concentration of total platinum in the liver homogenate ([4]; rats): 2.34 ± 0.82 µg/g
stability of the aqueous solutions of the Siosomes suspensions ([5]; 4°C, 25°C, 37°C and 42°C): stable for several days
count rate ([5]; 42°C): drops a little bit after several days but not drastically
count rate ([5]; over several days): stable
Encapsulation efficiency (%) [2, 7]: 80-85%
Particle size range of the Doxorubicin-siosomes (nm) [3]: 180-240 nm

CCCCCCCCCC[Si](C)(C)CCO[C@@H]1O[C@H](CO)[C@@H](O)[C@H](O)[C@H]1O [SIL 2, 2-(Dimethyldecylsilyl)ethyl-β-D-glucopyranosid]
particle size diameter ([5]; 42°C): growing after 4 days

Di-N,N,N, trimethylammoniadidodecylsilyl-di(2,3,4,6-O-tetraacetyl-beta-D-glucopyranosid) [SIL 64]
Encapsulation efficiency (%) [1]: 65-75%
Encapsulation efficiency (%) [2, 6]: 70-85%
Encapsulation efficiency (%) [2, 7]: 70-75%
Particle size range (nm) [3]: 120-200 nm
Particle size range of the Doxorubicin-siosomes (nm) [3]: 140-220 nm
Particle size of the siosomes (nm) [3]: 120-220 nm

1. 2-(Di-N,N,N, trimethylammoniadecylsilyl) ethyl-beta-D-glucopyranosid [SIL 63]
Encapsulation efficiency (%) [1]: 70-80%
Encapsulation efficiency (%) [2, 7]: 65-70%
Particle size range of the Doxorubicin-siosomes (nm) [3]: 120-200 nm
Particle size of the siosomes (nm) [3]: 150-250 nm
